Here are results for 1 compound from patent US20140072584A1, “NOVEL PHARMACEUTICAL USE OF BENZOIC ACID DERIVATIVES” (priority 2010, published 2014).

One data set concerns CD4+ effector cells. Description: Mixed lymphocyte culture, CFSE proliferation of effector cells by flow cytometry. The class given is cell-based, rat. The following applies: 4 days culture. From the text: Experiment method: From bodies of untreated rats (LEW-1A rats in Example 1), splenocytes were extracted according to the splenocytes extraction method described in Section 2.2.1. Splenocytes were fluorescence-labeled for TCR, CD4 and CD25, and by flow cytometry cell sorter TCR+CD4+CD25−cells were collected as CD4+ effector cells. Splenocytes after the removal of T-lymphocytes (TCR+cells), B cell lymphocytes (CD45R+cells) and NK cells (3.2.3+cells) by immuno-magnetic beads, were marked using fluorescent antibodies for TCR, CD11c and CD123 (antibody concentration was 5-10 μg/ml). By flow cytometry cell sorter, TCR-CD11c−CD123+cells were collected as pDC, and TCR-CD11c+CD123−cells were collected as mDC.
Well separated CD4+ effector cells and pDC or mDC and defined regulatory cells, respectively in a proportion of 4/4/1 were added into a 96-well culture plate, 200 ul culture medium was added and they were cultured in a 5% CO2 incubator at 37 degrees Celsius for 4 days. During the cultivation, cinnamoyl anthranilic acid (1.2-150 μmol) or control DMSO solvent was added. Cells were stain labeled after the four days, and the proliferation of effector cells was analyzed by a flow cytometer.
CD4+ effector cells before the mixed culture were marked by living organism dye CFSE (10*6 cells/ml in 5 μM CFSE). Labeled CD4+ effector cells were added to a mixed lymphocyte cultivation test, were marked again using fluorescent antibodies (TCR, CD4) after four days, and then were analyzed by a flow cytometer (TCR+CD4+gate) for effector cell proliferation.
Cinnamoyl anthranilic acid was added in different concentrations (150 μM, 75 μM, 37.5 μM, 18.7 μM, 9.35 μM, 4.7 μM, 2.35 μM, 1.2 μM). Cell stain labeling was conducted after 4 days of the culture, and the proliferation of effector cells was analyzed by a flow cytometer.
On the technique in general: Flow cytometry measures light scatter and fluorescence of single cells or particles in a stream.

For data set [1], the system named is BN donor transplanted rat hearts. Put plainly: Heart transplantation model, BN rats as donor, LEW-1A rats as recipient, oral administration. The class given is in vivo. To be noted: oral 500 mg/kg/day, four weeks; n=6. On the procedure: b) Heart Transplantation Animal Model with BN Rats as Donor and LEW-1A Rats as Recipient:
BN rats were used as donors; donors hearts after being isolated were preserved in saline at 0-4° C. […] The donor's aorta and the recipient's abdominal aorta were sutured up with 8-0 Prolene vascular threads, and the donor's pulmonary artery and the recipient's vena cava were sutured up with 8-OProlene vascular threads. When blood vessels were opened, the rat's heart would immediately resume beating.
Observation parameters: after the abdomen was closed, palpation was used to check the beating of a transplanted rat heart, to determine graft survival period. That transplanted heart stops beating within 3 weeks was considered as having acute rejection, that transplanted heart stops beating after one month was considered as having chronic rejection, and that transplanted heart beats normally for more than three months was considered as having immune tolerance.
Experiment Methods: 12 rats from the experiment model established by method b) BN rats as donors and LEW-1A rats as recipients were used and divided into study and control groups, 6 rats for each group. […]

For data set [2] the following is noted: after oral administration, cited from earlier work.
For data set [3], the system named is LEW-1W donor transplanted rat hearts. Description: Heart transplantation model, LEW-1W rats as donor, LEW-1A as recipient, oral administration. The class given is in vivo. The following applies: oral 500 mg/kg/day, four weeks; n=24. On the procedure: a) Heart Transplantation Animal Model with LEW-1W Rats as Donor, LEW-1a as Recipient:
LEW-1W rats were used as donors; donors hearts after being isolated were preserved in saline at 0-4° C. […] The donor's aorta and the recipient's abdominal aorta were sutured up with 8-0 Prolene vascular threads, and the donor's pulmonary artery and the recipient's vena cava were sutured up with 8-0 Prolene vascular threads. When blood vessels were opened, the rat's heart would immediately resume beating, (please see Guillonneau C, Hill M, Hubert F X, Chiffoleau E, Hervé C, Xian-Liang Li, et al. CD40Ig treatment results in allograft acceptence mediated by CD8+CD45RClow T cells, IFN-γ and indoleamine 2,3 dioxygenase. Journal Clinical Investagtion. 2007; 117 (4): 1096-1106).
Observation parameters: after the abdomen was closed, palpation was used to check the beating of a transplanted rat heart, to determine graft survival period. That transplanted heart stops beating within 3 weeks was considered as having acute rejection, that transplanted heart stops beating after one month was considered as having chronic rejection, and that transplanted heart beats normally for more than three months was considered as having immune tolerance. […]

Structures are written as SMILES.

Regarding `COc1ccc(/C=C/C(=O)Nc2ccccc2C(=O)O)cc1OC` [cinnamoyl anthranilic acid], the “effect on proliferation of CD4 effector T cells (CFSE)” value in the data set on CD4+ effector cells (37.5 μM to 9.35 μM) is “dose-dependent inhibitory effect”. Moreover, in the data set on CD4+ effector cells (150 μM and 75 μM), the “effect on activated CD4 effector cells at high concentrations” value was “directly kill activated CD4 effector cells”. In the data set on CD4+ effector cells (below 4.7 μM), the “effect on proliferation of CD4 effector cells at low concentration” value was “did not show the inhibitory effect”. For the same compound, in data set [1], the “recipients overcame acute rejection” value was 100% and the “recipients with long-term survival with a state of induced immune tolerance” value is on record as 50%. Besides, in data set [2] (48 h), the “blood concentration at 48 h” value is “difficult to be detected”. Besides, in data set [2], the plasma half-life was 5 to 8.6 h; the “time to peak plasma concentration” value was 2 to 3 h; the tissue distribution result is “bronchial and lung have the highest concentration”. Moreover, in data set [3], the “recipients overcame acute rejection” value came out at 92% and the “recipients with long-term survival with a state of induced immune tolerance” value worked out at 42%.
